Data from US4336263A, “1,4-Cycloalkano-oxazepines, salts thereof and analgesic uses thereof” (priority 1978, dated 1982).
Read-outs that look alike come from different tables or passages of the source.

Tests used:
[1] = acute lethal dose (LD 50) for intraperitoneal administration; type: in vivo; settings: for Relative toxicity: Nefopam = 1.00
Text: The comparatively low toxicity of the novel compounds can also be deduced from the acute lethal dose (LD 50) for intraperitoneal administration (Table 2). The LD 50 values are from about 90% to 240% higher than those of Nefopam.

[2] = system: female mice (NMRI strain); assay: animal or person; type: in vivo; settings: for ED (100%): Mus musculus, 0.5 h; for ED (100%) / ED 100% (dose which increases the reaction time by 100%): 30 minutes after administration; for Q (enteral activity: quotient of ED 100% for intraperitoneal and oral administration): i.p. ED 100% / oral ED 100%, 30 min; for Maximum action, Δ% (increase in reaction time): maximum increase without fatalities
Procedure: (§1) The model used for testing the analgesic action was the tail flick test of D'AMOUR and SMITH (J. Pharmacol. 72 (1941), 74-79). In this experiment, the compounds to be tested were administered intraperitoneally or orally, as aqueous solutions (injection volume 10 ml/kg) to groups of 10 female mice (NMRI strain) weighing 20-22 g each.
(§2) Pain reactions are caused before, and 30 minutes after, the administration of the compound, by means of thermal irritation (the tail being exposed to focused heat radiation from a halogen lamp for at most 30 seconds).
(§3) The time until the tail is drawn out of the radiation zone by reflex action is measured, and taken as the reaction time. Its average value, for 670 untreated animals, is 6.5±0.29 sec.
(§4) Analgesic substances increase the reaction time, to an extent depending on the dose. There is a linear relationship between the logarithms of the doses (mg/kg) and of the relative increase in reaction time (Δ%), from which the dose, defined as the ED 100%, which doubles the reaction time can be calculated by means of regression analysis. For a radiation exposure period of at most 30 seconds, the maximum possible increase in the reaction time is about 360%.

[3] = in vivo; type: in vivo, mice (NMRI strain); settings: mouse, in vivo, read-out: treated animals killed
Procedure: as §1, §2, §3, §4

[4] = ip, read-out: ED 100% (dose which increases the reaction time by 100%), intraperitoneal administration
[5] = po, read-out: ED 100% (dose which increases the reaction time by 100%), oral administration
[6] = intraperitoneal administration, Nefopam = 1.00
[7] = intraperitoneal administration, dose of maximum action
[8] = oral administration, Nefopam = 1.00
[9] = oral administration, dose of maximum action

| SMILES | Relative toxicity [1] | LD50 ([1]; in vivo, ip, read-out: LD 50) | ED (100%) [2, 4] | ED (100%) [2, 5] | Q (enteral activity: quotient of ED 100% for intraperitoneal and oral administration) [2] | relative activity [2, 6] | Maximum action, mg/kg (dose) [2, 7] | Maximum action, Δ% (increase in reaction time) ([2]; intraperitoneal administration) | relative activity [2, 8] | Maximum action, mg/kg (dose) [2, 9] | Maximum action, Δ% (increase in reaction time) ([2]; oral administration) | further results |
| --- | --- | --- | --- | --- | --- | --- | --- | --- | --- | --- | --- | --- |
| COc1cccc([C@@]23CCCC[C@@H]2CN(C)CCO3)c1 (relative stereo) [Example 3, 4-methyl-9a-(3-methoxyphenyl)-perhydro-1,4-benzoxazepine] | 0.52 | 110 mg/kg | 11.4 mg/kg | 17 mg/kg | 0.67 | 0.71 | 46.4 mg/kg | 416% | 2.73 | 100 mg/kg | 397% | – |
| CC(=O)Oc1cccc([C@@]23CCCC[C@@H]2CN(C)CCO3)c1 (relative stereo) [Example 7 β, 4-Methyl-9a-(3-acetoxyphenyl)-perhydro-1,4-benzoxazepine] | 0.30 | 194 mg/kg | 12.6 mg/kg | 13.1 mg/kg | 0.96 | – | – | 275% | 3.54 | – | 280% | Maximum action, mg/kg (dose) ([2]; mouse, in vivo, ip): 46.4 mg/kg; relative activity ([2]; mouse, in vivo, ip): 0.64; Maximum action, mg/kg (dose) ([2]; mouse, in vivo, po): 100 mg/kg |
| COc1cccc([C@@]23CCC[C@@H]2CN(C)CCO3)c1 (relative stereo) [Example 6] | 0.45 | 127 mg/kg | 4.66 mg/kg | 9.49 mg/kg | 0.49 | 1.73 | 46.4 mg/kg | 380% | 4.89 | 46.4 mg/kg | 364% | – |
| COc1cccc([C@@]23CCCC[C@@H]2CN(C)CCO3)c1 (single isomer, unassigned) [9 (-), (-)-4-Methyl-9a-(3-methoxyphenyl)-perhydro-1,4-benzoxazepine] | 0.40 | 145 mg/kg | 11 mg/kg | 17.6 mg/kg | 0.63 | – | – | 348% | 2.64 | – | 397% | Maximum action, mg/kg (dose) ([2]; mouse, in vivo, ip): 46.4 mg/kg; relative activity ([2]; mouse, in vivo, ip): 0.74; Maximum action, mg/kg (dose) ([2]; mouse, in vivo, po): 100 mg/kg |
| COc1cccc([C@@]23CCCC[C@@H]2CN(C)CCO3)c1 (single isomer, unassigned) [9 (+), (+)-4-Methyl-9a-(3-methoxyphenyl)-perhydro-1,4-benzoxazepine] | 0.52 | – | – | – | 0.71 | 0.48 | 46.4 mg/kg | 249% | 1.97 | 100 mg/kg | 370% | LD50 [1]: 110 mg/kg; ED 100% (dose which increases the reaction time by 100%) ([2]; intraperitoneal administration): 16.7 mg/kg; ED 100% (dose which increases the reaction time by 100%) ([2]; oral administration): 23.5 mg/kg |
| CN1CCOC(c2ccccc2)c2ccccc2C1 (centres unmarked) [Nefopam, 5-methyl-1-phenyl-3,4,5,6-tetrahydro-1H-benz[f]-2,5-oxazocine, reference compound] | 1.00 | 57.3 mg/kg | – | – | 0.17 | – | 21.5 mg/kg | 192% | 1.00 | 46.4 mg/kg | 93% | mortality ([3]; ip, 46.4 mg/kg administered intraperitoneally): 60%; mortality ([3]; po, 100 mg/kg administered orally): 60%; animals died ([2]; 46.4 mg/kg intraperitoneally): 6 out of 10 animals; animals died ([2]; 100 mg/kg orally): 6 out of 10 animals; ED (100%) ([2]; oral administration, read-out: ED 100% (dose which increases the reaction time by 100%)): 46.4 mg/kg; ED (100%) ([2]; ip, intraperitoneal administration, read-out: ED 100% (dose which increases the reaction time by 100%)): 8.08 mg/kg |
| CN1CCO[C@]2(c3cccc(O)c3)CCCC[C@@H]2C1 (relative stereo) [Example 7, 4-Methyl-9a-(3-hydroxyphenyl)-perhydro-1,4-benzoxazepine] | 0.35 | 165 mg/kg | 6.55 mg/kg | 18.6 mg/kg | 0.35 | 1.23 | 46.4 mg/kg | 364% | 2.50 | 46.4 mg/kg | 332% | – |
